# From US4225619A, “Substituted fluoracylresorcinols” (Boehringer Ingelheim GmBH, priority 1976, dated 1980)
# What was measured:
# [1] = system: Aspergillus niger; assay: Agar diffusion test (hole-test); format: cell-based; details: 168 h, 27° C. for 7 days, read-out: MIC, A.D.T., Aspergillus niger
# Procedure: (§1) The inhibitory effect on bacteria and fungi was examined by the serial dilution test and the agar diffusion test (hole-test). As bacteria were used: Staphylococcus aureus SG 511, Streptococcus Aronson, Streptococcus pyogenes At CC 86 68; as fungi: Candida albicans AT CC 10231, Trichophyton mentagrophytes AT CC 9129 and Aspergillus niger.
# (§2) 3. Sabouraud agar: for C. alb., Trich. ment., A. niger
# (§3) The age of the primary cultures is 24 hours for bacteria and 14 days for fungi. The standardization of the suspension of microorganisms is effected using a photometer according to Eppendorf (test tube .phi.14 mm, filter 546 nm) and a suspension for comparison consisting of barium sulfate, this suspension being created by addition of 3.0 ml of 1% barium chloride solution to 97 ml of 1% sulfuric acid. After the standardization St. aureus SG 511 was diluted 1:1000 and Sc. pyogenes and Aronson 1:100 by means of sodium chloride solution. The fungi were used in an undiluted state.
# (§4) 40 mgm of the substance were put into a 10 ml measuring flask and filled up to the mark with the solvent (corresponds to a dilution of 1:250=4000 μg/ml).
# (§5) The dilutions to the concentrations under test were effected with distilled water or the respective solvent.
# (§6) 19 ml of the nutrient medium were filled into sterile Petri dishes of a diameter of 8 cm and dried. Subsequently the agar plates were charged with 4 ml of seed agar. 100 ml of seed agar contain 1.25 ml of the suspension of microorganisms, an agar plate thus containing 0.05 ml of the suspension of microorganisms. After solidification of the agar, 5 holes of a diameter of 5 mm were punched into the plates and filled with 0.05 ml of the correspondingly concentrated substance solution.
# (§7) Control tests merely using the solvent are to be carried out simultaneously.
# (§8) Bacteria were incubated at 37° C. for 18-20 hours and fungi at 27° C. for 7 days.
# (§9) The diameter of the area of inhibition in mm was measured after having deducted the diameter of the hole.
# [2] = system: Candida albicans AT CC 10231; assay: Agar diffusion test (hole-test); format: cell-based; details: ATCC10231, 168 h, 27° C. for 7 days, read-out: MIC, A.D.T., Candida albicans
# Procedure: as §1, §2, §3, §4, §5, §6, §7, §8, §9
# [3] = system: Trichophyton mentagrophytes AT CC 9129; assay: Agar diffusion test (hole-test); format: cell-based; details: ATCC9129, 168 h, 27° C. for 7 days, read-out: MIC, A.D.T., Trichophyton mentagrophytes
# Procedure: as §1, §2, §3, §4, §5, §6, §7, §8, §9
# [4] = system: Aspergillus niger; assay: Serial dilution test; format: cell-based; details: Aspergillus niger, 168 h, 27° C. for 7 days, read-out: MIC, S.D.T., Aspergillus niger
# Procedure: as §1
# (§10) 3. Sabouraud broth: for C. alb., Trich. mnt., A. niger
# (§11) The age of the primary cultures is 24 hours for bacteria and 14 days for fungi. The standardization of the suspension of microorganisms is effected using a photometer according to Eppendorf (test tube .phi.14 mm, filter 546 nm) and a suspension for comparison consisting of barium sulfate, this suspension being created by adition of 3.0 ml of 1% barium chloride solution to 97 ml of 1% sulfuric acid. After the standardization the bacteria were further diluted to a concentration of 1:1000 by means of sodium chloride solution, the fungi were used in an undiluted state.
# (§12) 40 mgm of the substance were put into a 10 ml measuring flask and filled up to the mark with the solvent (corresponds to a dilution of 1:250=4000 μg/ml). The further dilution series was standardized with distilled water or the respective solvent and the following substance concentrations were prepared: 1000; 250; 62.5 μg/ml.
# (§13) The tubes were filled with 4.9 ml of the corresponding liquid nutrient medium. Then 0.1 ml of the substance dilution prepared above was added to each tube, so that the mentioned final concentrations were present. Finally each tube was inoculated with 0.1 ml of the standardized suspension of microorganisms. Control tests merely using the solvent are to be carried out simultaneously.
# as §8
# (§14) The measurement is carried out macroscopically defining the minimal inhibitory concentration (the lowest still microbiostatically effective concentration).
# [5] = system: Candida albicans AT CC 10231; assay: Serial dilution test; format: cell-based
# Procedure: as §1, §10, §11, §12, §13, §8, §14
# [6] = system: Trichophyton mentagrophytes AT CC 9129; assay: Serial dilution test; format: cell-based; details: ATCC9129, 168 h, 27° C. for 7 days, read-out: MIC, S.D.T., Trichophyton mentagrophytes
# Procedure: as §1, §10, §11, §12, §13, §8, §14
# [7] = system: Pityrosporum ovale CBS 1878; assay: Agar diffusion test for Pityrosporum ovale CBS 1878; format: cell-based; details: Malassezia furfur, CBS1878, 168 h, 7 days at 27° C., read-out: MIC, A.D.T., Pityrosporum ovale
# Procedure: Agar diffusion test for Pityrosporum ovale CBS 1878 Nutrient medium
# Littmann's agar, 23 ml per Petri dish, diameter of dish 100 mm.
# Suspension of microorganisms in 0.9% sodium chloride solution, standardized using a photometer according to Eppendorf by means of a suspension for comparison consisting of barium sulfate. 0.05 ml per plate were used. The test substances were dissolved in dimethyl sulfoxide. The incubation time was 7 days at 27° C.; the area of inhibition in mm was measured, 0.05 ml of the solution of the substance were used for each punch-hole of a diameter of 6 mm. The results of these tests are recorded in the following tables 1 and 2: […]
# [8] = system: Pityrosporum ovale; assay: Serial dilution test for Pityrosporum ovale; format: cell-based; details: Malassezia furfur, 168 h, 27° C. for 7 days, read-out: MIC, S.D.T., Pityrosporum ovale
# Procedure: Serial dilution test for Corynebacterium acnes and Pityrosporum ovale Nutrient medium
# For Corynebacterium acnes: thioglycolate-broth for Pityrosporum ovale: Littmann's broth, 5 ml per tube.
# Suspension of microorganisms in 0.9% sodium chloride solution, standardized using a photometer according to Eppendorf by means of a suspension for comparison consisting of barium sulfate, for Corynebacterium acnes in a dilution of 1:100, for Pityrosporum ovale in an undiluted state. 0.1 ml of the suspensions was used per test tube. Dimethyl sulfoxide served as a solvent for the substances.
# The suspension with Corynebacteria acnes was incubated at 37° C. for 48 hours, the suspension of Pityrosporum ovale at 27° C. for 7 days. The reading was effected by macroscopic evaluation of the growth of microorganisms and registration of the minimal inhibitory concentration.
# [9] = system: HeLa-cell culture; assay: Inhibition of HeLa cell cultures; format: cell-based; details: Homo sapiens, 72 h, 37° C. for 3 days, 5% carbon dioxide
# Procedure: Measurement of the inhibition of cell cultures
# HeLa-cell culture was treated with trypsin and adjusted to a cell number of 150,000 cells/ml of fresh medium. The substance was always dissolved in the same quantity of dimethyl sulfoxide and then further diluted with growth medium. 0.1 ml of the substance-dilutions were added to each well of microtiter plates and then 0.2 ml of cell suspension were added (4 wells per dilution). Several growth controls containing 0.1 ml of growth medium instead of 0.1 ml of substance dilution were put up. After careful mixing, the cultures were incubated at 37° C. for 3 days in a 5% carbon dioxide atmosphere. The reading was effected in comparison with these controls. The results were given as the percentage of the deficiency and degeneration compared to the growth control. […] The statements are referred to μg of substance per ml of total medium.
# [10] = system: humans; details: in some cases; cited from earlier work
structure (smiles),measurement,setting,value
"Cc1c(O)ccc(C(=O)C(F)(F)C(F)(F)F)c1O [V, 2,4-Dihydroxy-3-methyl-pentafluoropropiophenone]",MIC,[1],> 4000 µg/mL
same,MIC,[2],4000 µg/mL
same,MIC,[3],250 µg/mL
same,MIC,[4],> 80 µg/mL
same,MIC,"[5]; Candida albicans, ATCC10231, 168 h, 27° C. for 7 days, read-out: MIC, S.D.T., Candida albicans",80 µg/mL
same,MIC,[6],20 µg/mL
same,MIC,[7],4000 µg/mL
same,MIC,[8],20 µg/mL
same,IC50,"[9]; read-out: ED50, HeLa cell culture",1.5 µg/mL
same,minimal effective concentration,"[9]; read-out: Minimal inhibitory concentration, HeLa cell culture",≤ 0.78 µg/mL
"CCCCCCCCCCc1cc(C(=O)C(F)(F)F)c(O)cc1O [W, 2,4-Dihydroxy-5-n-decyl-trifluoroacetophenone]",MIC,[1],250 µg/mL
same,MIC,[2],1000 µg/mL
same,MIC,[3],≤ 15.6 µg/mL
same,MIC,[4],5 µg/mL
same,"Concentration with reduced growth (value in brackets), S.D.T., Candida albicans",[5]; reduced growth at this concentration,20 µg/mL
same,MIC,[6],1.25 µg/mL
same,MIC,[7],250 µg/mL
same,MIC,[8],80 µg/mL
CCCCCCc1ccc(O)cc1O [hexyl-resorcinol],allergies in humans,[10],in some cases cause allergies in humans
